Values after ≈ are worked out from the molar mass of the structure shown.

What all share (type): cell-based
The subject of assay [1] is Staphylococcus aureus (methicillin-resistant and sensitive clinical isolates; ATCC29213). The assay can be described thus: MIC by micro broth dilution (CLSI), Staphylococcus aureus. Particulars: for MIC50 / MIC90: Clinical strain; for MIC50: read-out: MIC50; for MIC90: read-out: MIC90; for MIC: Standard strain ATCC29213, read-out: MIC. The text has this:
(§1) The test bacteria were one strain of clinically isolated carbapenem-resistant Escherichia coli, two strains of carbapenem-resistant Acinetobacter baumannii, two strains of methicillin-resistant Staphylococcus aureus, two strains of sensitive Staphylococcus aureus, and 7 strains of Klebsiella pneumoniae. Duplicate strains isolated from the same patient were eliminated. There were also […] quality control strains Escherichia coli ATCC25922, Acinetobacter baumannii ATCC19606, Staphylococcus aureus ATCC29213, Klebsiella pneumoniae ATCC BAA-1705, ATCC 43816, ATCC BAA-2472, ATCC-BAA-1898, ATCC-BAA-1899, NCTC 13440 and ATCC-BAA-2470. There were 24 strains in total.
(§2) According to the recommendations of relevant documents of the American Clinical and Laboratory Standards Institute (CLSI), the micro broth dilution method was used to determine the MIC of the compounds of the present invention against clinically isolated strains. • 3.1 Formulation of antibacterial drug: All the compounds of the present invention were dissolved in DMSO. The drug concentration range was 128 mg/L to 0.06 mg/L. • 3.2 Culture medium: The drug susceptibility test used cation adjusted Mueller-Hinton broth (CAMHB). • 3.3 Amount of inoculum: The test bacteria cultured overnight were adjusted to 0.5 McFarland turbidity by the direct colony suspension method, and diluted 100 folds, the final inoculum amount was 10^5 CFU/mL. • 3.4 Culture conditions: The test bacteria were cultured at 35±2° C. for 20 hours in air.
(§3) The drug susceptibility test results were interpretated by reference to CLSI 2019 M100 29th edition criteria.
(§4) The quality control strains of the drug susceptibility test were Escherichia coli ATCC 25922, Acinetobacter baumannii ATCC 19606, Staphylococcus aureus ATCC 29213, Klebsiella pneumoniae ATCC BAA-1705, ATCC 43816, ATCC BAA-2472, ATCC-BAA-1898, ATCC-BAA-1899, NCTC 13440 and ATCC-BAA-2470.
(§5) The results of drug susceptibility test were statistically analyzed by WHONET software (version 5.6).
A general note: Broth dilution looks for growth in wells or tubes with falling amounts of substance.

The subject of assay [2] is Escherichia coli (carbapenem-resistant clinical isolate; ATCC25922). The assay can be described thus: MIC by micro broth dilution (CLSI), Escherichia coli. The settings on record: Escherichia coli; for MIC50 / MIC90: ATCC25922, Clinical strain; for MIC50: read-out: MIC50; for MIC90: read-out: MIC90; for MIC: Standard strain ATCC25922, read-out: MIC.
Text: as §1, §2, §3, §4, §5

In assay [3] the test system is Acinetobacter baumannii (carbapenem-resistant clinical isolates; ATCC19606). The assay can be described thus: MIC by micro broth dilution (CLSI), Acinetobacter baumannii. The settings on record: Acinetobacter baumannii; for MIC50 / MIC90: ATCC19606, Clinical strain; for MIC50: read-out: MIC50; for MIC90: read-out: MIC90; for MIC: Standard strain ATCC19606, read-out: MIC.
Text: as §1, §2, §3, §4, §5

Usually MIC50 stands for an inhibitory concentration at the 50% level, which refers to growth in some studies and to a panel of isolates in others. Broadly, the MIC90 is an inhibitory concentration at the 90% level, which refers to growth in some studies and to a panel of isolates in others. One may read the MIC as the smallest concentration in the dilution series that meets the test's criterion for growth inhibition. On to `O=[N+]([O-])c1ccc2c(CN3CCOCC3)ccnc2c1O` [Example 89, 4-(morpholinomethyl)-7-nitroquinolin-8-ol], for which, in assay [1], the MIC50 was found to be 64 µg/mL (≈ 221 µM), the MIC90 is 64 µg/mL (≈ 221 µM) and the MIC is 64 µg/mL (≈ 221 µM). For the same compound, in assay [2], the MIC50 is > 128 µg/mL, the MIC90 is > 128 µg/mL and the MIC was > 128 µg/mL. Further, in assay [3], the MIC50 was 128 µg/mL (≈ 442 µM), the MIC90 is 128 µg/mL (≈ 442 µM) and the MIC was determined as 128 µg/mL (≈ 442 µM).
In the case of `CCN(CC)Cc1cnc2c(O)c([N+](=O)[O-])cc(Cl)c2c1.O=C(O)C(F)(F)F.O=C(O)C(F)(F)F` [Example 90, 5-chloro-3-((diethylamino)methyl)-7-nitroquinolin-8-ol ditrifluoroacetate], the MIC50 amounted to 32 µg/mL in assay [1], 64 µg/mL in assay [2] and 32 µg/mL in assay [3]. The results for the MIC90 in assay [1], in assay [2] and in assay [3] were 32 µg/mL, > 128 µg/mL and 128 µg/mL, respectively. Further, the minimal inhibitory concentration (MIC) in assay [1] turned out to be 32 µg/mL; in assay [2], 64 µg/mL; in assay [3], 32 µg/mL.
On to `O=[N+]([O-])c1cc(CN2CCCCC2)c2cccnc2c1O` [Example 91, 7-nitro-5-(piperidin-1-ylmethyl)quinolin-8-ol acetate], for which, in assay [1], the MIC50 is > 128 µg/mL, the MIC90 was > 128 µg/mL and the minimum inhibitory concentration (MIC) was > 128 µg/mL. Also, in assay [2], the MIC50 is > 128 µg/mL, the MIC90 was > 128 µg/mL and the minimum inhibitory concentration (MIC) turned out to be 128 µg/mL. Besides, in assay [3], the MIC50 was > 128 µg/mL, the MIC90 was > 128 µg/mL and the MIC was determined as 128 µg/mL.
As for `O=[N+]([O-])c1cc(Cl)c2cc(CN3CCCCC3)cnc2c1O` [Example 92, 5-chloro-7-nitro-3-(piperidin-1-ylmethyl)quinolin-8-ol], in assay [1], the MIC50 stood at 16 µg/mL (≈ 49.7 µM), the MIC90 was determined as 16 µg/mL (≈ 49.7 µM) and the MIC was determined as 16 µg/mL (≈ 49.7 µM). Also, in assay [2], the MIC50 was > 128 µg/mL, the MIC90 was > 128 µg/mL and the MIC is 64 µg/mL (≈ 199 µM). Moreover, in assay [3], the MIC50 came to 32 µg/mL (≈ 99.5 µM), the MIC90 was found to be 128 µg/mL (≈ 398 µM) and the MIC came out at 32 µg/mL (≈ 99.5 µM).
In the case of `O=[N+]([O-])c1cc(CN2CCCC2)c2cccnc2c1O` [Example 93, 7-nitro-5-(pyrrolidin-1-ylmethyl)quinolin-8-ol acetate], the MIC50 in assay [1], in assay [2] and in assay [3] was > 128 µg/mL each time. Further, the MIC90 in assay [1], in assay [2] and in assay [3] was > 128 µg/mL throughout. For the same compound, the MIC in assay [1], in assay [2] and in assay [3] was > 128 µg/mL in each case.
For `CCN(CC)Cc1cc([N+](=O)[O-])c(O)c2ncccc12` [Example 94, 5-((diethylamino)methyl)-7-nitroquinolin-8-ol], in assay [1], the MIC50 was > 128 µg/mL, the MIC90 was > 128 µg/mL and the MIC is > 128 µg/mL. Besides, in assay [2], the MIC50 was determined as 128 µg/mL (≈ 465 µM), the MIC90 amounted to 128 µg/mL (≈ 465 µM) and the MIC is 64 µg/mL (≈ 232 µM). Besides, in assay [3], the MIC50 is 64 µg/mL (≈ 232 µM), the MIC90 is > 128 µg/mL and the MIC came to 128 µg/mL (≈ 465 µM).
As to `O=[N+]([O-])c1ccc2cc(CN3CCCCC3)cnc2c1O` [Example 95, 7-nitro-3-(piperidin-1-ylmethyl)quinolin-8-ol], the MIC50 in assay [1], in assay [2] and in assay [3] was 64 µg/mL (≈ 223 µM) each time. Also, the MIC90 in assay [1], in assay [2] and in assay [3] was 64 µg/mL (≈ 223 µM) throughout. The values for the MIC in assay [1], in assay [2] and in assay [3] were 64 µg/mL (≈ 223 µM), 64 µg/mL (≈ 223 µM) and 32 µg/mL (≈ 111 µM), respectively.
Regarding `O=[N+]([O-])c1cc(Cl)c2cc(CN3CCOCC3)cnc2c1O` [Example 96, 5-chloro-3-(morpholinomethyl)-7-nitroquinolin-8-ol], in assay [1], the MIC50 is 32 µg/mL (≈ 98.8 µM), the MIC90 amounted to 64 µg/mL (≈ 198 µM) and the MIC amounted to 32 µg/mL (≈ 98.8 µM). In assay [2], the MIC50 is > 128 µg/mL, the MIC90 was > 128 µg/mL and the MIC is > 128 µg/mL. For the same compound, in assay [3], the MIC50 was > 128 µg/mL, the MIC90 is > 128 µg/mL and the MIC is > 128 µg/mL.

The values are drawn from patent publication US20240246916A1, “7-NITRO-8-HYDROXYQUINOLINE DERIVATIVES, PREPARATION METHOD THEREFORE AND MEDICAL USE THEREOF” (Jiangsu Yahong Meditech Co., Ltd., priority 2021, published 2024).
